Experimental data as given in publication PMC12118337, “Development of a Peptide Inhibitor Targeting the C‐SH2 Domain of the SHP2 Phosphatase” (Chembiochem, 2025).
Non-standard residues stand in square brackets, D forms with d. Residues, ends and D or L forms follow the SMILES beside them. *: point of attachment. AEEA = NCCOCCOCC(=O)O; X1 = O=C(O)C(C(=O)O)*

Tests used:
WT HeLa cells = settings: CCK-8, 100–300 µM, 16 h; three or four independent experiments in technical triplicates
Experimental: (§1) three or four independent experiments with 4 – 7 images taken per well in each […]
(§2) 7. Peptide cytotoxicity assays
(§3) The cytotoxicity of acetylated peptide 29 in WT Jurkat T cells and WT HeLa cells was determined using Cell Counting Kit-8 (CCK-8). Jurkat cells were seeded at 5 x 10^4 cells/well and HeLa cells were seeded at 5 x 10^3 cells/well in 96-well flat-bottom cell culture plates (Greiner Bio-One). HeLa cells were allowed to adhere overnight at 37°C […]
(§4) 200 µM for Jurkat cells and 100 µM, 200 µM or 300 µM for HeLa cells in a total volume of 100 µL, each concentration in triplicate wells. In addition, three wells containing media alone as the background, three wells containing vehicle (H2O) treated cells as the negative control and three wells containing cells treated with 5% DMSO (Jurkat cells) or 20% DMSO (HeLa cells) to induce cell death as the positive control, were included in the plate. Cells were incubated with the peptide or controls for 24 hours (Jurkat cells) or 16 hours (HeLa cells) at 37°C and 5% CO2, then 10 µL of CCK-8 solution (Sigma-Aldrich) was added to each well and incubated for 1.5 hours at 37°C

WT Jurkat T cells = settings: CCK-8, 50–200 μM, 24 h; four independent experiments in technical triplicates
Experimental: as §1, §2, §3, §4

SHP2 C‐SH2 domain = target: T1, SHP2 C‐SH2 domain (Homo sapiens, UniProt Q06124); settings: ITC, previously reported; read-out: previously reported ITC K D, C‐SH2; cited from earlier work
T1 construct: SHP2 N-SH2 domain (1–105), C-SH2 domain (106–220), PTP domain (224–541) and; His6 (pETM22 vector) (N, cleaved yes); made in house; host or cells: E. coli BL21(DE3)
T1 sequence (Q06124 106-220): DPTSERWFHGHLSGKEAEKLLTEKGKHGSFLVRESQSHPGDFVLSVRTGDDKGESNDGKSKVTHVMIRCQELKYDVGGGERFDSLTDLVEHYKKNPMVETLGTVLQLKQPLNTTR

SHP2 N‐SH2 domain = target: T2, SHP2 N‐SH2 domain (Homo sapiens, UniProt Q06124); settings: ITC, previously reported; read-out: previously reported ITC K D, N‐SH2; cited from earlier work
T2 construct: SHP2 N-SH2 domain (1–105), C-SH2 domain (106–220), PTP domain (224–541) and; His6 (pETM22 vector) (N, cleaved yes); made in house; host or cells: E. coli BL21(DE3)
T2 sequence (Q06124 1-105): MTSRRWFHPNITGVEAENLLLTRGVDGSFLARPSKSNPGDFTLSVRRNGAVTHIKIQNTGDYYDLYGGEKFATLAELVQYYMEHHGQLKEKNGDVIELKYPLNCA

Q: Which “cytotoxicity (viability) in HeLa cells” value (WT HeLa cells) does the source give for CC[C@H](C)[C@H](NC(=O)[C@@H](NC(=O)[C@H](C)NC(=O)[C@H](Cc1ccc(OC(C(=O)O)C(=O)O)cc1)NC(=O)[C@H](CCC(=O)O)NC(=O)[C@@H](NC(=O)[C@H](CCC(N)=O)NC(=O)COCCOCCNC(=O)[C@@H](CCCNC(=N)N)NC(=O)[C@@H](CCCNC(=N)N)NC(=O)[C@@H](CCCNC(=N)N)NC(=O)[C@@H](CCCNC(=N)N)NC(=O)[C@@H](CCCNC(=N)N)NC(=O)[C@@H](CCCNC(=N)N)NC(=O)[C@@H](CCCNC(=N)N)NC(=O)[C@@H](CCCNC(=N)N)NC(C)=O)[C@@H](C)O)[C@@H](C)O)C(=O)N[C@@H](CCCCN)C(=O)N[C@@H](Cc1c[nH]cn1)C(=O)N1CCC[C@H]1C(N)=O [peptide 29] (Ac-[dR][dR][dR][dR][dR][dR][dR][dR][AEEA]QTEY(X1)ATIKHP-NH2) here?
A: no toxicity

Q: What about the “cytotoxicity (viability) in Jurkat cells” value (WT Jurkat T cells) of the same compound?
A: only started showing a trend toward some toxicity at the highest concentration of 200 μM

Q: Which results are given for “PD‐1 ITSM: PD‐1 immunoreceptor tyrosine‐based switch motif phosphopeptide of the authors' earlier work (ref 11) (EQTEYATIVFP; phospho-Tyr5 (pTyr))”?
A: Kd (SHP2 C‐SH2 domain): 13 nM; Kd (SHP2 N‐SH2 domain): 167 nM
